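Test compounds were applied to cells in 96-well plates for 48 hours at 5 doses. TGI is the concentration that stops growth completely.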
Columns and labels:
Test in all cases: inhibition of tumour cell growth, NCI panel, 48 h
KM20L2 colon = tested on: KM20L2 colon
CAKI-1 renal = tested on: CAKI-1 renal
MOLT-4 leukemia = tested on: MOLT-4 leukemia
HCT-116 colon = tested on: HCT-116 colon
KM12 colon = tested on: KM12 colon
XF 498 CNS = tested on: XF 498 CNS
A498 renal = tested on: A498 renal
NCI-H23 lung = tested on: NCI-H23 lung
SNB-78 CNS = tested on: SNB-78 CNS
UACC-257 melanoma = tested on: UACC-257 melanoma
RPMI-8226 leukemia = tested on: RPMI-8226 leukemia
EKVX NSCLC = tested on: EKVX NSCLC
SK-MEL-2 melanoma = tested on: SK-MEL-2 melanoma
HOP-62 NSCLC = tested on: HOP-62 NSCLC
U251 CNS = tested on: U251 CNS
SK-MEL-5 melanoma = tested on: SK-MEL-5 melanoma
OVCAR-3 ovarian = tested on: OVCAR-3 ovarian
K-562 leukemia = tested on: K-562 leukemia
LOX IMVI melanoma = tested on: LOX IMVI melanoma
SNB-19 CNS = tested on: SNB-19 CNS
RXF 393 renal = tested on: RXF 393 renal
LXFL 529 NSCLC = tested on: LXFL 529 NSCLC
SN12C renal = tested on: SN12C renal
SK-MEL-28 melanoma = tested on: SK-MEL-28 melanoma
CCRF-CEM leukemia = tested on: CCRF-CEM leukemia
DMS 114 small cell lung = tested on: DMS 114 small cell lung
TK-10 renal = tested on: TK-10 renal
OVCAR-4 ovarian = tested on: OVCAR-4 ovarian
HOP-92 NSCLC = tested on: HOP-92 NSCLC
IGROV1 ovarian = tested on: IGROV1 ovarian
786-0 renal = tested on: 786-0 renal
NCI-H460 lung = tested on: NCI-H460 lung
M14 melanoma = tested on: M14 melanoma
HL-60(TB) leukemia = tested on: HL-60(TB) leukemia
SF-539 CNS = tested on: SF-539 CNS
SF-295 CNS = tested on: SF-295 CNS
HCT-15 colon = tested on: HCT-15 colon
OVCAR-8 ovarian = tested on: OVCAR-8 ovarian
NCI-H522 lung = tested on: NCI-H522 lung
SK-OV-3 ovarian = tested on: SK-OV-3 ovarian
A549 NSCLC = tested on: A549 NSCLC
SNB-75 CNS = tested on: SNB-75 CNS
SR leukemia = tested on: SR leukemia
SW-620 colon = tested on: SW-620 colon
DLD-1 colon = tested on: DLD-1 colon
UACC-62 melanoma = tested on: UACC-62 melanoma
HCC-2998 colon = tested on: HCC-2998 colon
DMS 273 small cell lung = tested on: DMS 273 small cell lung
COLO 205 colon = tested on: COLO 205 colon
M19-MEL melanoma = tested on: M19-MEL melanoma
SF-268 CNS = tested on: SF-268 CNS
UO-31 renal = tested on: UO-31 renal
ACHN renal = tested on: ACHN renal
HOP-18 NSCLC = tested on: HOP-18 NSCLC
MALME-3M melanoma = tested on: MALME-3M melanoma
HT29 colon = tested on: HT29 colon

Measured: TGI

CCOC(=O)C1CC/C(=C(/C#N)C(=O)OC)N1 (centres undefined)
not listed: HOP-18 NSCLC | MALME-3M melanoma | HT29 colon
> 100 µM: all other assays above

CCOC(=O)C1(Cc2ccc3ccccc3c2)CCCCCN1 (centres undefined)
41.4 µM: HCT-15 colon
34.7 µM: NCI-H460 lung
30.2 µM: SNB-75 CNS
56.9 µM: DLD-1 colon
64.9 µM: SW-620 colon
55.4 µM: HOP-92 NSCLC
38.4 µM: DMS 273 small cell lung
39.6 µM: LOX IMVI melanoma
90.7 µM: MOLT-4 leukemia
68.7 µM: K-562 leukemia
57 µM: KM20L2 colon
87.4 µM: DMS 114 small cell lung
57.3 µM: HCC-2998 colon
83.2 µM: RXF 393 renal
26.9 µM: HT29 colon
39 µM: SF-295 CNS
33.9 µM: MALME-3M melanoma
88.9 µM: SK-MEL-28 melanoma
34.2 µM: 786-0 renal
82.1 µM: UO-31 renal
27.6 µM: RPMI-8226 leukemia
48.1 µM: M14 melanoma
34.4 µM: COLO 205 colon
41.2 µM: XF 498 CNS
93.8 µM: M19-MEL melanoma
52 µM: HL-60(TB) leukemia
not listed: HCT-116 colon | KM12 colon | A498 renal | UACC-257 melanoma | SK-MEL-2 melanoma | SK-MEL-5 melanoma | CCRF-CEM leukemia | SF-539 CNS | NCI-H522 lung | SR leukemia
> 100 µM: all other assays above
